Data from patent publication US20260184704A1, “NLRP3 INFLAMMASOME INHIBITORS AND USES THEREOF” (Insilico Medicine IP Limited, priority 2023, published 2026).

How the values were obtained:
[1] = tested on: THP-1 cells, IL-1β release; assay: IL-1β Release THP-1 Assay (Example B-3); assay type: cell-based; settings: Homo sapiens; PMA-differentiated THP-1 cells, LPS then Nigericin, IL-1β by Elisa; read-out: Potency, THP-1 IL-1β, IC50 (nM), Example B-3
Protocol: Example B-3: IL-1β Release THP-1 Assay
THP-1 cells Culture RPMI1640 medium, 10% FBS, 1% PS, 55 uM β-Mer at 37° C. & 5% CO2 incubator.
IL-1β Release Detection • 1) Seed THP-1 in complete RPMI 1640 medium containing PMA into 96 well plate coated with poly-L-lysin incubate for 24 hours. • 2) Remove medium, wash the differentiated THP-1 cells with PBS, add FBS free RPMI 1640 medium. • 3) Add LPS and incubate for 3 hours at 37° C. & 5% CO2 incubator. • 4) Add compounds and incubate for 30 minutes at 37° C. & 5% CO2 incubator. • 5) Add Nigericin and incubate for 1 hour at 37° C. & 5% CO2 incubator. • 6) Collect supernatant to test IL-1β by Elisa.
• a) Assay robustness check with DMSO and Low control data:
[formula] • X: cpd concentration • Y: change % • Top and Bottom: Plateaus in same units as Y • logIC50: same log units as X • HillSlope: Slope factor or Hill slope

NLRP3 = molecular target: T1, NLRP3 (Homo sapiens, UniProt Q96P20); assay: NLRP3 Enzymatic Activity ADP-Glo Assay (Example B-4); assay type: biochemical; settings: hydrolysis of ATP by NLRP3; NLRP3 15 nM, ATP 1 μM; read-out: NLRP3_ADP-Glo_IC50 (nM), Example B-4
T1 construct: purchased ICE YM2306T-H06MHS
T1 sequence (Q96P20 whole entry): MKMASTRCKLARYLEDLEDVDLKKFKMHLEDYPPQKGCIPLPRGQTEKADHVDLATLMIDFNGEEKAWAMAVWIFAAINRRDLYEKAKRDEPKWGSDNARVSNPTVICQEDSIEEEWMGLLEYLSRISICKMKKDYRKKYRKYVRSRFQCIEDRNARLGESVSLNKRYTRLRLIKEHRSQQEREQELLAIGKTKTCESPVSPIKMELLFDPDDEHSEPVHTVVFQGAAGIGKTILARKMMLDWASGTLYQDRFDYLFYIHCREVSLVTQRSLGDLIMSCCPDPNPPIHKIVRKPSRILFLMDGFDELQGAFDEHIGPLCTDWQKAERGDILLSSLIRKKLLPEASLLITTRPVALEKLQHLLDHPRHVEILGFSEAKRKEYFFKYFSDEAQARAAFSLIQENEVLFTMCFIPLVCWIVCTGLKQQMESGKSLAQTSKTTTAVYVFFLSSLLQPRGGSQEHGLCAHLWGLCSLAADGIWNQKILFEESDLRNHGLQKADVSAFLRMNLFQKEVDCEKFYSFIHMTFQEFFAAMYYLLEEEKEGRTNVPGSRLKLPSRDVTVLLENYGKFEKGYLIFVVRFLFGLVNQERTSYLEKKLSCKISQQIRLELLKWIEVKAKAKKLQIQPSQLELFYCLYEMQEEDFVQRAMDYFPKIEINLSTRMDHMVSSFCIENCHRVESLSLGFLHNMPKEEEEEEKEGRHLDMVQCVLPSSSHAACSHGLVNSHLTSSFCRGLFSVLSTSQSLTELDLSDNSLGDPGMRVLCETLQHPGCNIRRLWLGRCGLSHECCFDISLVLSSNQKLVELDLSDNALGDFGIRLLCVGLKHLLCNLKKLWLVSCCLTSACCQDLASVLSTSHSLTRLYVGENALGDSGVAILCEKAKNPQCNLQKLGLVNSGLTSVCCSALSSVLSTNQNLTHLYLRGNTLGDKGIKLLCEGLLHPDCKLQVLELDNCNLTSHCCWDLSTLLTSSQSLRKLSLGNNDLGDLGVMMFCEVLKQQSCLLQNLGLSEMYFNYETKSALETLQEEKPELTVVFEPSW
Protocol: Example B-4: NLRP3 Enzymatic Activity ADP-Glo Assay
NLRP3 activity test experiment, measuring the hydrolysis of NLRP3 on the substrate ATP using the ADP-Glo assay. First, after adding an inhibitor containing 0.5% DMSO with Echo, add 5 μL of NLRP3 (ICE, YM2306T-H06MHS) enzyme solution to each well, centrifuge at 1000 rpm for 1 min at room temperature and react for 10 min. Then add 5 μL of ATP (Promega, V915A) substrate solution to each well for 90 min at room temperature; NLRP3 and ATP were prepared in 50 mM HEPES, 10 mM MgCl2, 0.01% Brij-35, 1 mM EGTA, and 2 mM DTT buffers at final concentrations of 15 nM and 1 μM, respectively. Subsequently, 10 μL ADP-Glo reagent solution (Promega, V9102) was added into each assay well, centrifuged at 1000 rpm for 1 min, and then incubated at room temperature for 45 min. Finally, 20 μL ADP-Glo detection solution (Promega, V9102) is added to each well, centrifuged at 1000 rpm for 1 min and reacted for 45 min at room temperature. The luminescence signal values were read using a BMG instrument and the IC50 values were determined by fitting the data to an S-shaped dose-response curve using nonlinear regression.

Compound | IC50 [1] [nM] | IC50 (NLRP3) [nM]
Cc1cc(C(F)(F)F)cc(O)c1C1=NN=C(N[C@@H]2C[C@H](O)CN(C)C2)SC1 (single isomer, unassigned) [Compound 16] | 10 to 100 | –
Cc1cc(C(F)(F)F)cc(O)c1C1=NN=C(N2CCC[C@@H]2[C@@H](C)O)SC1 (single isomer, unassigned) [Compound 33] | – | > 1000
Cc1cc(C(F)(F)F)cc(O)c1C1=NN=C(N2CCC[C@@H]2[C@H](C)O)SC1 (single isomer, unassigned) [Compound 34] | – | > 1000
Cc1cc(C(F)(F)F)cc(O)c1C1=NN=C(N[C@@H]2CCCNC2)SC1 [Compound 2] | < 10 | –
CC1SC(N[C@@H]2CCCN(C)C2)=NN=C1c1ccc(C(F)(F)F)cc1O (stereo partly shown) [Compound 5] | 100 to 1000 | –
Cc1cc(C(F)(F)F)cc(O)c1C1=NN=C(N[C@@H]2CCCN(CCO)C2)SC1 [Compound 6] | < 10 | –
Cc1cc(C(F)(F)F)cc(O)c1C1=NN=C(N[C@@H]2CCC[C@H](O)C2)SC1 [Compound 7] | 10 to 100 | –
Cc1cc(C(F)(F)F)cc(O)c1C1=NN=C(N[C@@H]2C[C@H](F)CN(C)C2)SC1 [Compound 9] | 10 to 100 | –
Cc1cc(C(F)(F)F)cc(O)c1C1=NN=C(N[C@@H]2CCN(C)C2)SC1 [Compound 11] | 10 to 100 | –
Cc1cc(C(F)(F)F)cc(O)c1C1=NN=C(N[C@H]2CN3CCC2CC3)SC1 [Compound 20] | 10 to 100 | –
Cc1cc(OC(F)F)cc(O)c1C1=NN=C(N[C@@H]2CCCN(C)C2)SC1 [Compound 21] | 10 to 100 | –
COc1cc(C)c(C2=NN=C(N[C@@H]3CCCN(C)C3)SC2)c(O)c1 [Compound 23] | < 10 | 10 to 100
Cc1cc(OC(F)F)cc(O)c1C1=NN=C(N[C@H]2C[C@@](C)(O)C2)SC1 [Compound 25] | 10 to 100 | 10 to 100
Cc1cc(C(F)(F)F)cc(O)c1C1=NN=C(NC[C@@H](C)O)SC1 [Compound 26] | 100 to 1000 | –
Cc1cc(C(F)(F)F)cc(O)c1C1=NN=C(N[C@H]2C[C@](O)(C(F)(F)F)C2)SC1 [Compound 29] | 10 to 100 | –
Cc1cc(Cl)cc(O)c1C1=NN=C(N[C@H]2C[C@@](C)(O)C2)SC1 [Compound 30] | 10 to 100 | 10 to 100
CNC(=O)CNC1=NN=C(c2c(C)cc(C(F)(F)F)cc2O)CS1 [Compound 32] | – | > 1000
Cc1cc(C(F)(F)F)cc(O)c1C1=NN=C(N[C@@H]2CCCN(C)C2)N(C)C1 [Compound 36] | 100 to 1000 | 100 to 1000
Cc1cc2c(c(O)c1C1=NN=C(N[C@@H]3CCCN(CCO)C3)SC1)CCO2 [Compound 40] | 10 to 100 | 10 to 100
C[C@]1(O)C[C@@H](NC2=NN=C(c3c(O)cc(C(F)(F)F)cc3Cl)CS2)C1 [Compound 45] | 10 to 100 | 10 to 100

Compound | IC50 [1] [nM] | IC50 (NLRP3) [nM]
CCN1CCC[C@@H](NC2=NN=C(c3c(C)cc4sccc4c3O)CS2)C1 [Compound 46] | < 10 | < 10
Cc1cc(C(F)(F)F)c(F)c(O)c1C1=NN=C(N[C@H]2C[C@@](C)(O)C2)SC1 [Compound 48] | 100 to 1000 | 10 to 100
Cc1cc(C(F)(F)F)cc(O)c1C1=NN=C(N[C@@H]2CCCN(C)C2)OC1 [Compound 52] | – | > 1000
CCN1CCC[C@@H](NC2=NN=C(c3c(C)cc4c(c3O)CCO4)CS2)C1 [Compound 54] | – | < 10
Cc1cc2c(c(O)c1C1=NN=C(N(C)[C@@H]3CCCN(C)C3)SC1)CCO2 [Compound 55] | – | 100 to 1000
CC#Cc1cc(C)c(C2=NN=C(N[C@@H]3CCCN(C)C3)SC2)c(O)c1 [Compound 56] | – | 100 to 1000
Cc1c(F)c2c(c(O)c1C1=NN=C(N[C@@H]3CCCN(C)C3)SC1)CCO2 [Compound 57] | 10 to 100 | 10 to 100
C[C@]1(O)C[C@@H](NC2=NN=C(c3c(C(F)(F)F)cc4c(c3O)CCO4)CS2)C1 [Compound 58] | 10 to 100 | 10 to 100
Cc1c(F)c2c(c(O)c1C1=NN=C(N[C@H]3C[C@@](C)(O)C3)SC1)CCO2 [Compound 61] | – | 10 to 100
Cc1cc2c(c(O)c1C1=NN=C(N[C@H]3C[C@@](C)(O)C3)SC1)OCC2 [Compound 64] | – | 10 to 100
Cc1cc2c(c(O)c1C1=NN=C(N[C@H]3C[C@](C)(O)C3)SC1)CCO2 [Compound 65] | – | 100 to 1000
C[C@]1(O)C[C@@H](NC2=NN=C(c3c(C(F)F)cc4c(c3O)CCO4)CS2)C1 [Compound 66] | 10 to 100 | 10 to 100
Cc1cc2c(c(O)c1C1=NN=C(N[C@H]3C[C@](C)(O)C3)SC1)CC2 [Compound 67] | 10 to 100 | 10 to 100
Cc1cc2c(c(O)c1C1=NN=C(N[C@H]3C[C@](C)(N)C3)SC1)CC2 [Compound 69] | – | 100 to 1000
Cc1cc2c(c(O)c1C1=NN=C(N[C@]34CC[C@](O)(C3)C4)SC1)CCO2 [Compound 70] | – | 100 to 1000
Cc1cc2occc2c(O)c1C1=NN=C(N[C@H]2C[C@@](C)(O)C2)SC1 [Compound 72] | – | < 10
Cc1cc(C(F)(F)F)cc(O)c1C1=NN=C(N[C@H]2C[C@@](C)(O)C2)CS1 [Compound 201] | 10 to 100 | 10 to 100
Cc1cc(C(F)(F)F)cc(O)c1C1=NN=C(N[C@H]2C[C@@](C)(O)C2)C(C)(C)S1 [Compound 202] | 10 to 100 | 10 to 100
Cc1cc2c(c(O)c1C1=NN=C(N[C@H]3C[C@@](C)(O)C3)CS1)CCO2 [Compound 203] | 10 to 100 | 10 to 100
Cc1cc(Cl)cc(O)c1C1=NN=C(N[C@H]2C[C@](C)(N)C2)CS1 [Compound 207] | – | 100 to 1000

Other lines, results leading:

IC50 [1] [nM] | IC50 (NLRP3) [nM] | Compound
< 10 | 10 to 100 | Cc1cc(C(F)(F)F)cc(O)c1C1=NN=C(N[C@@H]2CCCN(C)C2)SC1 [Compound 1]
< 10 | – | CCN1CCC[C@@H](NC2=NN=C(c3c(C)cc(C(F)(F)F)cc3O)CS2)C1 [Compound 3]
10 to 100 | – | Cc1cc(C(F)(F)F)cc(O)c1C1=NN=C(N[C@@H]2CCCN(C3COC3)C2)SC1 [Compound 17]
100 to 1000 | – | Cc1cc(C(F)(F)F)cc(O)c1C1=NN=C(Nc2cc[nH]n2)SC1 [Compound 22]
100 to 1000 | – | Cc1cc(C(F)(F)F)cc(O)c1C1=NN=C(N[C@H]2C[C@@H](O)C2)SC1 [Compound 24]
10 to 100 | 10 to 100 | Cc1cc(C(F)(F)F)cc(O)c1C1=NN=C(N2CCC3CCN(C)CC32)SC1 (stereo not shown) [Compound 35]
10 to 100 | 10 to 100 | Cc1cc(C#N)cc(O)c1C1=NN=C(N[C@@H]2CCCN(C)C2)SC1 [Compound 37]
– | 100 to 1000 | Cc1cc(C#N)cc(O)c1C1=NN=C(N2CCC3CCN(C)CC32)SC1 (stereo not shown) [Compound 39]
– | 100 to 1000 | C[C@]1(O)C[C@@H](NC2=NN=C(c3c(O)cc(C(F)(F)F)cc3F)CS2)C1 [Compound 41]
– | > 1000 | Cc1cc(C(F)(F)F)cc(OC(F)F)c1C1=NN=C(N[C@H]2C[C@@](C)(O)C2)SC1 [Compound 42]
– | > 1000 | Cc1cc(C(F)(F)F)cc(O)c1C1=NN=C(NCCC(N)=O)SC1 [Compound 43]
< 10 | < 10 | Cc1cc2sccc2c(O)c1C1=NN=C(N[C@@H]2CCCN(CCO)C2)SC1 [Compound 47]
– | > 1000 | Cc1cc2c(cc1C1=NN=C(N[C@@H]3CCCN(C)C3)SC1)CCO2 [Compound 49]
10 to 100 | 10 to 100 | Cc1cc2c(c(O)c1C1=NN=C(N[C@H]3C[C@@](C)(O)C3)SC1)CCC2 [Compound 50]
< 10 | 10 to 100 | Cc1cc2c(c(O)c1C1=NN=C(N3CCC4CCN(C)CC43)SC1)CCO2 (stereo not shown) [Compound 51]
10 to 100 | 10 to 100 | C[C@]1(O)C[C@@H](NC2=NN=C(c3c(Cl)cc4c(c3O)CCO4)CS2)C1 [Compound 60]
– | 100 to 1000 | Cc1cc2c(c(O)c1C1=NN=C(N[C@H]3C[C@@](C)(O)C3)SC1)COC2 [Compound 62]
– | 100 to 1000 | Cc1cc2c(c(O)c1C1=NN=C(NC34CCC(O)(CC3)C4)SC1)CCO2 [Compound 63]
10 to 100 | 10 to 100 | Cc1cc2c(c(O)c1C1=NN=C(N[C@H]3C[C@@](C)(N)C3)SC1)CC2 [Compound 68]
– | 10 to 100 | [2H]C([2H])([2H])c1cc2c(c(O)c1C1=NN=C(N[C@H]3C[C@@](C)(O)C3)SC1)CCO2 [Compound 71]
< 10 | 10 to 100 | Cc1cc(Cl)cc(O)c1C1=NN=C(N[C@H]2C[C@@](C)(O)C2)CS1 [Compound 204]
